The text below walks through data of article PMC11195995, “A homogeneous time-resolved fluorescence screen to identify SIRT2 deacetylase and defatty-acylase inhibitors” (PLOS ONE, 2024).

pIC50, pKd: −log10 of the molar value. Entries after “also recorded” stand apart in the source; their conditions may differ. Read-outs that look alike come from different tables or passages of the source.

Data set [1] has as its target T1, human SIRT2 catalytic domain (6xHis-SUMO-SIRT2) (Homo sapiens, UniProt Q8IXJ6).
T1 sequence (Q8IXJ6 34-356): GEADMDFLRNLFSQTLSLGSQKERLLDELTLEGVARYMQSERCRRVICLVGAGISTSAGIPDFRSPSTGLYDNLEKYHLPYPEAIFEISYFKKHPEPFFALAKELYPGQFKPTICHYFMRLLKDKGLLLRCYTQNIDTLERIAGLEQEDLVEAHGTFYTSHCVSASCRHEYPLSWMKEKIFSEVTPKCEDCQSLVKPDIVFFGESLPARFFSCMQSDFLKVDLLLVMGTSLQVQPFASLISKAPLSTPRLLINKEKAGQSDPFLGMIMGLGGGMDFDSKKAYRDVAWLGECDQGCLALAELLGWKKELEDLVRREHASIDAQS

For data set [2], the system named is acetylated alpha-tubulin in A549 cells. Description: Immunofluorescence staining of acetylated alpha-tubulin in A549 cells. In kind it is cell-based, human. As to conditions: 100 μM, 6 hours. As for the experimental part: 100,000 A549 or A549 SIRT2-KO cells were seeded on a coverslip that was placed in the well of 6-well plate, and the cells were grown overnight in full DMEM. […] The cells were then washed three times with PBS, fixed with 4% paraformaldehyde for 10 min, then washed again three times with PBS. Cells were incubated with 0.2% Triton X-100 for 15 minutes on a shaker followed by three more PBS washes. The cells were then blocked with 2% BSA in PBS for 1 hour at room temperature. […] Slides were imaged using a Keyence BZ-X710 fluorescence microscope with the following filter settings: DAPI, excitation/emission was 300–400 nm/438-484 nm; Alexa Fluor 488, excitation/emission was 448 nm/500-550 nm. All images were obtained under identical conditions, and fluorescence intensities were quantified using Fiji/ImageJ without any manipulation to the images. The fluorescence intensity from at least six cells per coverslip were randomly selected and measured targeting the cytosol (for measuring acetylated alpha-tubulin levels via Alexa Fluor 488) or the nucleus (for measuring nuclear DNA staining via DAPI). Relative fluorescence intensity was calculated as the ratio of Alexa Fluor 488/DAPI intensities. […]

In a further data set the test system is A549 cells. The experiment in a line: Cell viability MTT assay. In kind it is cell-based, human. As to conditions: 72 hours treatment, concentrations shown in Fig 4F and 4G. As for the experimental part: 5,000 A549 cells were seeded in a 96-well plate in full DMEM. The total volume in each well was 150 μl, and the DMSO concentration was 0.7%. After this treatment period, 10 μl of MTT reagent was added to each well, then the cells were cultured for 4 hour before adding 100 μl of crystal dissolving solution for another 16 hour incubation (Cayman Chemical, catalog #10009365). The absorbance in each well was measured at 570 nm and was used to determine the cell viability by comparing the absorbance of drug treated cells to control (DMSO treated) cells.
Background: Tetrazolium dyes change colour on reduction, which living cells bring about.

Data set [3] deals with T1, human SIRT2 catalytic domain (6xHis-SUMO-SIRT2). Description: biochemical.
For data set [4], the target named is T2, SIRT2 (Homo sapiens, UniProt Q8IXJ6).
T2 sequence (Q8IXJ6 34-356): T1 sequence (Q8IXJ6 34-356)
The experiment in a line: SIRT2 deacetylase activity assay (MALDI-MS, acetyl-H4K16 peptide). It counts as biochemical. As for the experimental part: (§1) The enzymatic activity of SIRT2 was measured using a MALDI-MS—based protocol reported previously. Reactions were performed at 37°C for 2.5 min in PBS containing 1 mM DTT and 1 mM of NAD^+. Acylated H4K16 peptides were used as the substrates at the following concentrations: acetyl-H4K16, 4 μM; decanoyl-H4K16, 0.2 μM; dodecanoyl-H4K16, 0.5 μM; myristoyl-H4K16, 0.5 μM. These concentrations correspond to the enzyme’s Km for each substrate under saturating NAD^+ conditions. The enzyme concentration in each reaction was chosen such that 20% or less of the substrate was processed by the enzyme when the reactions were quenched. In dose-response assays showing a reduction in SIRT2 activity by increasing amounts of ligand, the data was fit with standard sigmoidal dose-response curves as we previously described. We report absolute IC50 values from the curves which reflect ligand concentrations that reduce the activity of the enzyme by 50% compared to control (no ligand) samples. Assays measuring the effects of ligand on SIRT1 deacetylase and SIRT6 demyristoylase activities were performed similarly, as previously described.

The next data set addresses SIRT6 (Homo sapiens, UniProt Q8N6T7). Description: SIRT6 demyristoylase activity assay. It counts as biochemical. The conditions noted are these: 16 μM myristoyl-H4K16, dose-response. How it is done: as §1
In the next data set the target is T3, SIRT1 (Homo sapiens, UniProt Q96EB6).
T3 sequence (Q96EB6 1-747): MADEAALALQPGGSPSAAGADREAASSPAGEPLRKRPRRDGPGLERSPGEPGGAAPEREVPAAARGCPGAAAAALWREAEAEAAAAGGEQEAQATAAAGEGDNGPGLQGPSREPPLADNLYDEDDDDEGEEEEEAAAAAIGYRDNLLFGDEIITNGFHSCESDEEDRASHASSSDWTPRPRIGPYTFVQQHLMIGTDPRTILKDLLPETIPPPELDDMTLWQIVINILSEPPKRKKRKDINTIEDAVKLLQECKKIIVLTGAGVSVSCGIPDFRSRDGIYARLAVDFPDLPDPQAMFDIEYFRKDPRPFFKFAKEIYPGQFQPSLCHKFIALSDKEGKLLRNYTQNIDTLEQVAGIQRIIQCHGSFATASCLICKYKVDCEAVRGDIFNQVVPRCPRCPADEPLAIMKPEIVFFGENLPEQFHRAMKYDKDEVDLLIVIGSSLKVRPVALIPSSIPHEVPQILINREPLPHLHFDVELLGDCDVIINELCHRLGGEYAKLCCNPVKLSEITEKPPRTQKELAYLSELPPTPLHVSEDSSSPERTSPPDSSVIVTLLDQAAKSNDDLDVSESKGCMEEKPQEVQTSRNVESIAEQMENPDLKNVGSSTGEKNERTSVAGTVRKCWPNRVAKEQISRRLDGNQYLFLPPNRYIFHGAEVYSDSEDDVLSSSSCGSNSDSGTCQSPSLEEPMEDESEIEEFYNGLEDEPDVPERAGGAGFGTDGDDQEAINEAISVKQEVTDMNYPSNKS
The experiment in a line: SIRT1 deacetylase activity assay. It counts as biochemical. As to conditions: 1 μM acetyl-H4K16. As for the experimental part: as §1

Data set [5] addresses T2, SIRT2. The experiment in a line: SIRT2 de-decanoylase activity assay (MALDI-MS, decanoyl-H4K16 peptide). As to conditions: 0.2 μM decanoyl-H4K16, 1 mM NAD+. It counts as biochemical. As for the experimental part: as §1
Data set [6] addresses T2, SIRT2. The experiment in a line: SIRT2 demyristoylase activity assay (MALDI-MS, myristoyl-H4K16 peptide). It counts as biochemical. How it is done:
as §1

Data set [7] concerns acetylated alpha-tubulin in A549 SIRT2-KO cells. The experiment in a line: Immunofluorescence staining of acetylated alpha-tubulin in A549 SIRT2-KO cells. The conditions noted are these: 100 μM, 6 hours. It counts as cell-based, human.
Data set [8] addresses T2, SIRT2. Description: SIRT2 de-dodecanoylase activity assay (MALDI-MS, dodecanoyl-H4K16 peptide). The conditions noted are these: 0.5 μM dodecanoyl-H4K16, 1 mM NAD+. In kind it is biochemical. As for the experimental part:
as §1

For data set [9], the target named is T2, SIRT2. The experiment in a line: SIRT2 binding competition assay using Cy3-myristoyl-H4K16 peptide. As for the experimental part: Competition assays where Cy3-myristoyl-H4K16 peptide was displaced from SIRT2 by 1 were performed as previously described. Assays were performed in PBS with 1 mM DTT at 23°C in a quartz microcuvette (160 μl assay volume). Briefly, the fluorescence intensity of 50 nM Cy3-myristoyl-H4K16 peptide was measured in the presence of 2.5 μM SIRT2 and increasing amounts of 1 using excitation/emission wavelengths of 535 nm/560 nm. The final DMSO concentration in each measurement was 0.6%. As previously described, displacement of Cy3-myristoyl-H4K16 peptide from SIRT2 by a competitive ligand results in a reduction of its fluorescence.
(§2) The data from both competition assays show a reduction in probe fluorescence at increasing concentrations of competitor ligands. […] We determined and report absolute IC50 values from the curves which reflect ligand concentrations that reduce the fluorescence by 50% compared to control (no ligand) samples.

In data set [10] the target is SIRT2—decanoyl peptide complex. Set-up: method as in PMID 32941003. As to conditions: cited from earlier work.
The target of data set [11] is T2, SIRT2. The conditions noted are these: cited from earlier work.
For data set [12], the target named is T2, SIRT2. The conditions noted are these: read-out: Deacetylase IC50; previously published; cited from earlier work.
Data set [13] addresses T2, SIRT2. The conditions noted are these: read-out: IC50 for SIRT2 demyristoylase activity; cited from earlier work.
In data set [14] the target is T2, SIRT2. Description: 1-aminoanthracene binding competition assay, SIRT2 alone. As for the experimental part: (§3) Competition assays where 1-aminoanthracene was displaced from SIRT2 by 2, 4, 5, and 6 were performed as previously reported where we described its displacement from SIRT2 by 3. The assays were also cuvette-based and performed at 23°C in PBS with 1 mM DTT, and the final DMSO concentration was 0.6%. Briefly, the fluorescence intensity of 100 nM 1-aminoanthracene was measured in the presence of 4 μM SIRT2 and increasing amounts of ligand using excitation/emission wavelengths of 390 nm/520 nm. As previously described, displacement of 1-aminoanthracene from SIRT2 by a competitor results in a reduction of its fluorescence.
We determined and report absolute IC50 values from the curves which reflect ligand concentrations that reduce the fluorescence by 50% compared to control (no ligand) samples.

In data set [15] the target is SIRT2—decanoyl-peptide complex (Homo sapiens, UniProt Q8IXJ6). The experiment in a line: 1-aminoanthracene binding competition assay, SIRT2—decanoyl-peptide complex. As for the experimental part:
as §3, §2

In data set [16] the target is T2, SIRT2. The experiment in a line: Intact protein MALDI-MS for covalent adduct on SIRT2. The conditions noted are these: 100 μM ligand, 10 μM SIRT2, 37°C, 30 minutes. How it is done: (A) MALDI-MS spectra of 10 μM SIRT2 after incubation in PBS with 1% DMSO at 37°C for 30 minutes. (B) MALDI-MS spectra of 10 μM SIRT2 after incubation with 100 μM of 2 in PBS with 1% DMSO at 37°C for 30 minutes. The predicted monoisotopic mass for this SIRT2 protein was 36552 Da, and the predicted average mass was 36576 Da; thus, the main peaks represented +1 ions in the isotopic cluster. […] The intact protein spectra were acquired with a Bruker microflex instrument in linear, positive ion mode using sinapinic acid as the matrix. Sinapinic acid was dissolved in 50% acetonitrile/50% water with 0.1% trifluoroacetic acid, which was also used to dilute protein prior to spotting on the MALDI plate. (TIFF)

Data set [17] has as its target T1, human SIRT2 catalytic domain (6xHis-SUMO-SIRT2). The experiment in a line: SIRT2—myristoyl-peptide HTRF binding assay (displacement of FAM-myristoyl-H4K16 peptide). The conditions noted are these: at the highest ligand concentrations. On the technique in general: Time-resolved FRET reads energy transfer from a long-lived donor to a nearby acceptor.

SIRT6, sequence (Q8N6T7 whole entry): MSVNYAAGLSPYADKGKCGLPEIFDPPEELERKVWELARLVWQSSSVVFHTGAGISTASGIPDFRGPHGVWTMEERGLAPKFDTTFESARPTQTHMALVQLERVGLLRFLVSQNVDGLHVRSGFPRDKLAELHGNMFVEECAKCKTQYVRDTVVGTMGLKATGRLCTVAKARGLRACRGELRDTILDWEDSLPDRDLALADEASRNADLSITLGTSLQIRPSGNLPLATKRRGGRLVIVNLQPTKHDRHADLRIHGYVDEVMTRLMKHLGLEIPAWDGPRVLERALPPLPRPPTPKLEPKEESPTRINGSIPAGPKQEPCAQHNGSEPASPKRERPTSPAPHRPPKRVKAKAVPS

On to `COc1ccc(NC(=O)c2ccc3c(SCC(=O)O)c4c(nc3c2)CCCC4)c(OC)c1` [C598-0017], for which, in data set [1], the pIC50 (in general, −log10 of the IC50, conventionally taken in molar units) was 5.20.
Consider `O=c1/c(=C\c2cc(Br)cc(I)c2O)sc2nc3ccccc3n12` [compound 1], for which the results for the “level of acetylated alpha-tubulin (immunofluorescence)” value in [2] and in data set [7] were “significantly increased; also recorded: enhanced fluorescence” and “no effect”, respectively. Moreover, the “viability / toxicity in A549 cells (MTT)” value in the data set on A549 cells is given as “did not cause toxicity; also recorded: no effect”. Further, the pIC50 is 5.16 in data set [3]; 5.15 at SIRT2 [4]; 4.49 at SIRT1; 5.10 against SIRT2 [5]; 4.43 on SIRT2 [6]; 4.41 against SIRT2 [8]. The pIC50 at SIRT2 [9] (50 nM Cy3 peptide, 2.5 μM SIRT2, 23°C, read-out: IC50 for displacement of Cy3-myristoyl-H4K16 peptide from SIRT2) was 4.80. Further, on SIRT6, the “effect on the demyristoylase activity of SIRT6” value is “no effect”. Further, the “effect on the demyristoylase activity of SIRT2” value on SIRT2 [6] (50 μM compound) is recorded as “considerably most effective”. At SIRT2 [9] (calculated from IC50 of Cy3-myristoyl-H4K16 peptide competition assay), the pKd – broadly, the Kd on a negative log10 scale, so that one unit is a factor of ten – is 5.30.
For the molecule `CC(C)c1cccc(C(C)C)c1O` [compound 3, 2-6-diisopropylphenol], the pKd in [10] is 5.15; on SIRT2 [11] (read-out: Kd for SIRT2 alone) it was 4.60. In addition, the pIC50 was 3.85 at SIRT2 [12] and 3.71 at SIRT2 [13].
`Oc1ccc(Br)cc1I` [compound 2, 4-bromo-2-iodophenol]: the negative-log IC50 (pIC50) at SIRT2 [14] (SIRT2 only, 100 nM 1-aminoanthracene, 4 μM SIRT2) was 4.12; in data set [15] (SIRT2-decanoyl peptide complex, 100 nM 1-aminoanthracene, 4 μM SIRT2, 10 μM decanoyl-H4K16 peptide), 5.15; against SIRT2 [4] it was 5.05. Besides, the negative logarithm of the Kd (pKd) on SIRT2 [14] (read-out: SIRT2 Kd) was 4.17; in [15], 5.52. Also, in data set [15] (stronger for the complex), the “affinity for SIRT2—decanoyl-peptide complex compared to SIRT2 alone” value is reported as 23 fold. For the same molecule, the “covalent reaction with SIRT2 (intact protein mass spectrometry)” value on SIRT2 [16] is “does not irreversibly attach to SIRT2 or form any type of covalent adduct; also recorded: does not covalently react with SIRT2”. In addition, the “Demyristoylase IC50” value on SIRT2 [6] (0.5 μM myristoyl-H4K16, 1 mM NAD+, 37°C, absolute IC50, "no effect" = 200 μM compound did not significantly affect SIRT2 activity) was “no effect”.
Consider `CCCCCCCCCCCCCCCC(=O)OC[C@H](O)[C@H]1OC(=O)C(O)=C1O` [ascorbyl palmitate], for which the “maximum reduction of HTRF FRET signal (displacement of FAM-myristoyl-H4K16 peptide)” value in [17] is reported as ~ 40%. The pKd at SIRT2 [11] (read-out: published Kd for SIRT2) is 5.30 to 5.52. Also, the pIC50 in [3] was 5.70; at SIRT2 [13] it was 4.64 to 5.10.
